Experimental data as given in patent US20120321584A1, “PROCESSES FOR PREPARING AMINE SALTS OF KMUP-3 AND USE THEREOF” (KAOHSIUNG MEDICAL UNIVERSITY, priority 2011, published 2012).

What was measured:
[1] = test system: phosphorylated eNOS (p-eNOS); experiment: Phosphorylated eNOS expression in neonatal myocytes, Western blotting; format: cell-based, rat; conditions: neonatal rat cardiomyocytes
Experimental: eNOS/p-NOS and cAMP/cGMP in neonatal myocytes. To determine the role of the NO/cGMP-pathway in heart, neonatal rat myocyte protein was extracted followed by Western blotting to measure the expression of eNOS, phosphorylated eNOS (p-eNOS), cAMP, and cGMP (FIG. 14 A-14 B and FIG. 15 A-15 B). KMUP-3 increased eNOS and p-eNOS in neonatal rat cardiomyocytes and the effect was reduced by L-NAME (100 μM)-pretreatment (FIG. 14A and FIG. 14B). KMUP-3 increased both cAMP and cGMP.
(§1) Protein extraction and Western blotting analysis. Briefly, after incubation with test agents in an organ bath, isolated beating atrium was frozen and pulverized to a fine powder at the temperature of liquid nitrogen. Atrium powders were then homogenized in protein extraction reagent (Pierce Biotechnology, Inc., Rockford, Ill.) by sonication. The samples were sonicated 10 sec three times and centrifuged at 13,000 rpm at 4° C. for 30 min. The protein concentrations of supernatants were determined by using bovine serum albumin as the standard. […] The intensity of the bands was measured by densitometry. eNOS or phosphorylated eNOS were extracted from cell culture of neonatal myocytes, PA ring and aortic ring (2-3 mm) of rats and measured by Western blotting analysis.

[2] = Hemodynamic measurements in anesthetized rats (LVSP, dP/dt, MABP, HR); format: in vivo, Wistar rats
Experimental: Hemodynamic measurements were carried out in male Wistar rats weighting 300˜350 g, anesthetized with pentobarbital sodium (40 mg kg^−1, i.p.). In brief, polyethylene tubing (PE50) was placed in the trachea to keep the airway patent, and rats continued to breathe spontaneously. Subsequently, rats were used to record hemodynamic and cardiovascular function. Vascular catheters (PE50) were placed in the femoral arteries to measure mean arterial blood pressure (MABP) and heart rate (HR). Changes of MABP and HR caused by KMUP-3 or KMUP-3 amine salt were recorded from the femoral artery with a pressure transducer (Gould, Model P50, U.S.A.), connected with a Pressure Processor Amplifier (Gould, Model 13-4615-52, U.S.A.). A femoral vein was used for intravenous administration of KMUP-3 or KMUP-3 amine salt. A specialized transducer tip catheter was placed in the right carotid artery and advanced into the left ventricle of the heart for measurement of left ventricular pressure (LVSP) or contractility; dP/dt at 50 mm Hg, an index of cardiac contractility, was derived from the left ventricular pressure trace; post-hoc vascular resistance was calculated as mean arterial blood pressure/peripheral cardiac output (MABP/PCO). Body temperature was monitored throughout the experiment and maintained between 37 and 37.5° C. by using a heating pad.
Each dose of active drugs was administered as a 20-min infusion in a series of escalating doses dissolved in a 5% dextrose water vehicle. […] KMUP-3 HCl or KMUP-3 amine salt were infused at 0.03, 0.05, and 0.075 μg/kg/20 min for the measurement of FABP, intraperitoneally injected at 0.03, 0.05 and 0.1 mg/kg for the measurement of MABP and HR and infused by intravenous injection for 2 min at 0.5, 1.0, 3.0 mg/kg dissolved in 5% dextrose water vehicle (2 ml) for the measurement of LV systolic pressure (LVSH), ABP, dP/dt, and HR. The primary hemodynamic variables were computed using commercial software and a signal processing workstation. Animals were randomly divided into one of six treatment or vehicle groups. After the completion of the surgical protocol, animals were allowed to stabilize for 1 h, and baseline data were collected at 5-min intervals for 30 min before the treatment.

[3] = test system: electrically-stimulated left atria; experiment: Electrically-stimulated beating left atrium, organ bath; format: cell-based, guinea-pig
Experimental: Organ bath experiments and tissue procurement. Guinea-pigs were killed by a blow on the head. Their hearts were quickly excised and trimmed of excess tissues. The atrium was carefully removed and placed at room temperature (20˜25° C.) in a Krebs solution of the following composition (mM): NaCl 113, KCl 4.8, CaCl2 2.2, KH2PO4 1.2, MgCl2 1.2, NaHCO3 25, dextrose 11.0; bubbled with a 95% O2+5% CO2 mixture, followed by separation of right and left atrium for subsequent experiments.
Quiescent left atria free of connective tissues were dissected and mounted in an organ bath under a resting tension of 0.5 g. Organs were bathed at 32.5° C. in aerated Krebs solution and electrically stimulated with 1 Hz at […] via two platinum electrodes placed at either side. The positive inotropic effect was measured by determining the cumulative concentration-response curves in the presence of KMUP-3 or KMUP-3 amine salt (0.1, 1.0, 10, 100 μM). To examine the possible involvement of NO and cAMP/cGMP in the action of KMUP-3 or KMUP-3 amine salt on electrically-stimulated beating atria, pre-incubated with a ROCK inhibitor Y27632 (1.0 μM), a β-adrenoceptor blocker propranolol (1.0 μM), eNOS inhibitors L-NAME (100 μM), 7-nitroindazole (100 μM) and 5-HT inhibitor ketanserin (1.0 μM) was performed for 15 min prior to the addition of KMUP-3 or KMUP-3 amine salt to measure the development of beating force and heart rate for 10 min.

RhoA = RhoA expression in electrically-stimulated left atria, Western blotting; format: cell-based, guinea-pig; conditions: KMUP-3 0.1-10 μM
Experimental: as §1, with “standard. The cell extracts were then boiled in a ratio of 4:1 with sample buffer (Tris 100 mM, pH 6.8; glycerol 20%, Sodium dodecyl sulfate (SDS) 4% and bromophenol blue 0.2%). Electrophoresis was performed using 10% SDS-PAGE and transferred to nitrocellulose membranes (Millipore Corp., Billerica, Mass.).” for “standard.”
PK, ROCKII and CIP-17 expression and pretreatment of beating left atrium. To examine whether KMUP-3 or KMUP-3 amine salt affects the protein expression in beating atrium, PKA, ROCKII, PKG and phosphorylated CIP-17 was determined by Western blotting, respectively. […]

[4] = anesthetized rats, intravenous injection 0.5-3 mg/kg within 2 min
[5] = intra-peritoneal injection 0.03-0.1 mg/kg
[6] = intravenous perfusion 0.03-0.075 μg/kg/min×20 min

With `Cn1c(=O)c2c(ncn2CCN2CCN(c3ccc([N+](=O)[O-])cc3)CC2)n(C)c1=O` [KMUP-3, 7-[2-[4-(4-nitrobenzene)piperazinyl]ethyl]-1,3-dimethylxanthine] the p-eNOS expression [1] was “increased”, the “LVSP (left ventricular systolic pressure)” value [2, 4] was “dose-dependently increased” and the “MABP (mean arterial blood pressure)” value [2, 4] was “dose-dependently increased”. For the same molecule, the dP/dt [2, 4] was “dose-dependently increased”, the HR [2, 5] was “dose-dependently increased” and the MABP [2, 5] was “dose-dependently increased”. For the same molecule, the HR [2, 6] was “dose-dependently increased”, the MABP [2, 6] was “dose-dependently increased” and the Left atria contractility ([3]; KMUP-3 10 μM) was “increased”. For the same molecule, the “Potency for increasing contractility compared with milrinone” value ([3]; electrical stimulation 1 Hz, P<0.05) was “more potent than milrinone” and the RhoA expression (RhoA) was “significantly increased”.
